Assay results from patent US9233121B2, “Compositions and methods for the treatment of cancer” (BOARD OF REGENTS OF THE UNIVERSITY OF NEBRASKA, priority 2011, dated 2016).

Legend:
Type in all cases: cell-based, human
SW1990-SP cells [1] = assay: Drug sensitivity: gemcitabine treatment of SP cells; details: 6.0 μM gemcitabine, 4, 10 and 20 days
Procedure: (§1) Both SP and NSP cells were cultured in gelatinized tissue culture dishes in stem cell specific medium containing Dulbecco's Modified Eagle's Medium (DMEM; GIBCO) and F12 supplemented with 10% ES specific fetal bovine serum (FBS; Invitrogen), L-glutamine (GIBCO), 100 nM nonessential amino acids (GIBCO), 1000 U/ml LIF (Sigma), bFGF (Invitrogen) and Pen/Strp. Two different conditions were maintained for both SP and NSP cells. First, both SP and NSP cells were maintained in the above-mentioned stem cell specific media and in another condition both the cells were maintained for a few days in 10% FBS containing DMEM media which was replaced with stem cell specific medium. The SP cells have also been grown in stem cell specific media and NSP cells have been grown in 10% FBS containing DMEM media.
(§2) The human hPaf1/PD2 region was targeted with specific siRNA (sequence 5′-[…]-3′; SEQ ID NO: 1). Synthetic sense and antisense oligonucleotides (Dharmacon, Lafayette, Colo.) were annealed in 100 mM potassium acetate, 30 mM HEPES-KOH (pH 7.4), and 2 mM magnesium acetate for one minute at 90° C. and one hour at 37° C., and frozen. […]
(§3) Tumor relapse occurs in cancer patients due to the important phenomena known as drug resistance. […] The expression of ALDH1 was analyzed in the gemcitabine treated SW1990-SP cells.

SW1990 NSP cells = assay: Drug sensitivity: gemcitabine treatment of NSP cells; details: 6.0 μM gemcitabine, several days
Procedure: as §1, §2, §3

ALDH1 = assay: Western blot of ALDH1 in gemcitabine treated SP cells; details: gemcitabine (6 μM) treated SW1990-SP cells compared to non-treated SP cells
Procedure: (§4) SP and NSP cells were processed for protein extraction and western blotting using standard procedures. Briefly, the cells were washed twice in PBS and lysed in RIPA buffer (100 mM Tris, 5 mM EDTA, 5% NP40; pH8.0) containing protease inhibitors (1 mM phenyl-methyl sulphonyl fluoride, 1 μg/ml aprotinin, 1 μg/ml leupeptin) and kept at 4° C. and supernatant were collected. Resolved proteins were transferred on to the PVDF membrane. After a quick wash in PBST (Phosphate buffered saline and 0.1% Tween 20), the membranes were blocked in 5% nonfat dry milk in PBS for at least 1 hour and then incubated with primary antibodies (anti-hPaf1/PD2, anti-ALDH1, anti-CD133, anti-CD44, anti-Shh and anti-β-actin) (diluted in 3% BSA in PBS) for overnight at 4° C. Then the membrane was washed (3×10 minutes) in PBST at room temperature and probed with 1:2000 diluted horseradish peroxidase-conjugated anti-mouse or anti-rabbit secondary antibodies for 1 hour at room temperature and washed 5×10 minutes with PBST. The signal was detected with an ECL chemiluminescence kit (Amersham Bioscience, UK).
as §3

hPaf1/PD2 = assay: Western blot of hPaf1/PD2 in gemcitabine treated SP cells; details: gemcitabine (6 μM) treated SW1990-SP cells compared to untreated SP cells
Procedure: as §4

SW1990-SP cells [2] = assay: hPaf1/PD2 knockdown with gemcitabine treatment in SP cells: phenotype, viability, FACS apoptosis
Procedure: The human hPaf1/PD2 region was targeted with specific siRNA (sequence 5′-[…]-3′; SEQ ID NO: 1). Synthetic sense and antisense oligonucleotides (Dharmacon, Lafayette, Colo.) were annealed in 100 mM potassium acetate, 30 mM HEPES-KOH (pH 7.4), and 2 mM magnesium acetate for one minute at 90° C. and one hour at 37° C., and frozen. Oligonucleotides were transfected into cells with TransIT-TKO (Mirus, Madison, Wis.) in accordance with the supplier's recommendations. Gemcitabine (6 μM) treatment was done for 20 days.
Following the previous drug sensitivity experiment, hPaf1/PD2 was transiently knocked down using RNAi oligos. The knockdown was carried out in vitro under stem cell specific culture condition.

SMILES: Nc1ccn([C@@H]2O[C@H](CO)[C@@H](O)C2(F)F)c(=O)n1 [gemcitabine]
- growth of SP cells on drug treatment (SW1990-SP cells [1]): continued to grow even after 4, 10 and 20 days of treatment
- cell death of NSP cells on drug treatment (SW1990 NSP cells): Cell death was observed
- expression of ALDH1 (western blot) (ALDH1): significantly elevated expression of ALDH1
- expression of hPaf1/PD2 (western blot) (hPaf1/PD2): maintained
- percentage of cell death (FACS-apoptosis analysis, PI staining) (SW1990-SP cells [2]; hPaf1/PD2 knockdown SP cells with gemcitabine treatment compared to control cells): increased percentage of cell death
- viability of SP cells (SW1990-SP cells [2]; seven days gemcitabine with transient knockdown (72 hours) of hPaf1/PD2 in SW1990-SP cells): decreased the viability of SP cells
